Measured values as given in US9840501B2, “Morpholin-pyridine derivatives” (Hoffmann-La Roche Inc., priority 2014, dated 2017).

Assays:
rat TAAR1 = rat TAAR1 (Rattus norvegicus (Rat), UniProt Q923Y9); assay: Radioligand binding assay on rat TAAR1; details: rat TAAR1, membranes of stably transfected HEK-293 cells; second value of the pair; read-out: Ki (μM) mouse/rat: rat
Procedure, shortened: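 Membranes from HEK293 cells stably expressing rat TAAR1, in 20 mM HEPES-NaOH pH 7.4; displacement of 3[H]-(S)-4-[(ethyl-phenyl-amino)-methyl]-4,5-dihydro-oxazol-2-ylamine, nonspecific binding with 10 μM unlabeled ligand. Compounds 10 pM to 10 μM in duplicate, 1 h at 4 °C, filtration and scintillation counting.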

mouse TAAR1 = mouse TAAR1 (Mus musculus (Mouse), UniProt Q923Y8); assay: Radioligand binding assay on mouse TAAR1; details: mouse TAAR1, membranes of stably transfected HEK-293 cells; first value of the pair; read-out: Ki (μM) mouse/rat: mouse
Sequence of mouse TAAR1 (Q923Y8 whole entry): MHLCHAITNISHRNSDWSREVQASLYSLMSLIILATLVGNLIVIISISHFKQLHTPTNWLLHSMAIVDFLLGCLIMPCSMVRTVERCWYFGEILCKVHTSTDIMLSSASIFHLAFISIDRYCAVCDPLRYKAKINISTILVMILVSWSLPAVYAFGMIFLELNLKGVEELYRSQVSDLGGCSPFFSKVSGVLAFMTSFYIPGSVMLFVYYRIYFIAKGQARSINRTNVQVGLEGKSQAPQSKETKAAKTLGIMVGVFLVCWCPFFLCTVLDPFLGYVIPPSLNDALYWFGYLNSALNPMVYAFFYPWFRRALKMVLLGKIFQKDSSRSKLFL
Procedure, shortened: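 Membranes from HEK293 cells stably expressing mouse TAAR1, in 20 mM HEPES-NaOH pH 7.4 with 0.1 mM EDTA, incubated 1 h at 4 °C with ^3[H]-(S)-4-[(ethyl-phenyl-amino)-methyl]-4,5-dihydro-oxazol-2-ylamine and compounds (10 pM to 10 μM, duplicates). Nonspecific binding with 10 μM unlabeled ligand; bound radioactivity counted after filtration.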

Sequence of rat TAAR1 (Q923Y9 whole entry): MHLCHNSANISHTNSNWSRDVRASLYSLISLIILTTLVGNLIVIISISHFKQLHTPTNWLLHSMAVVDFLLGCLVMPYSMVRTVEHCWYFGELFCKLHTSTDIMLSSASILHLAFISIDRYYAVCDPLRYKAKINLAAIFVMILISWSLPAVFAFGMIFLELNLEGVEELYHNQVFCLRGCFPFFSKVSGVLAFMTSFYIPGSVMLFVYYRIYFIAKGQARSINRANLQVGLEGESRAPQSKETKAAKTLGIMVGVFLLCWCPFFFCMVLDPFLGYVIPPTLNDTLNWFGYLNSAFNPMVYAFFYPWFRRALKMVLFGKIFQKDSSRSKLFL

Ki (rat TAAR1)	Ki (mouse TAAR1)	SMILES
1.37 µM	0.0199 µM	CCCc1c(Cl)c(C(=O)Nc2ccc([C@H]3CNCCO3)nc2)nn1C [Example 48, 4-Chloro-1-methyl-N-[6-[(2R)-morpholin-2-yl]-3-pyridyl]-5-propyl-pyrazole-3-carboxamide]
0.0023 µM	0.0215 µM	CC(C)n1nc(OCC(F)(F)F)cc1C(=O)Nc1ccc([C@@H]2CNCCO2)nc1 [Example 93, 2-Isopropyl-N-[6-[(2S)-morpholin-2-yl]-3-pyridyl]-5-(2,2,2-trifluoroethoxy)pyrazole-3-carboxamide]
0.27 µM	0.0147 µM	CCc1n[nH]c(C(=O)Nc2ccc([C@@H]3CNCCO3)nc2)c1C [Example 67, (S)-3-Ethyl-4-methyl-N-(6-(morpholin-2-yl)pyridin-3-yl)-1H-pyrazole-5-carboxamide]

SMILES	Ki (rat TAAR1)	Ki (mouse TAAR1)
CCc1ncc(C(=O)Nc2ccc([C@@H]3CNCCO3)nc2)cn1 [Example 37, 2-Ethyl-N-[6-[(2S)-morpholin-2-yl]-3-pyridyl]pyrimidine-5-carboxamide]	1.47 µM	0.139 µM
